In ChEMBL document CHEMBL1127985, “Synthesis and biological evaluation of new LTA4 analogs” (Bioorg Med Chem Lett, 1994):

Assays:
[1] = species on record: Cavia porcellus; experiment: Compound was tested for inhibition of LTD4 induced contraction of guinea pig ileum; type: functional
[2] = species on record: Cavia porcellus; experiment: Compound was tested for inhibition of LTD4 induced contraction of guinea pig ileum at a concentration 5E-5 M; NS means No significant effect; type: functional

Structure (SMILES)	IC50 [1]	IC50 [2]
CCCCC/C=C\C\C=C/C=C/C=C/c1cc(CCC(=O)OC)no1	–	Not Active
CCCCC/C=C\C\C=C/C=C/C=C/C1CC(CCC(=O)OC)=NO1 (stereo not given)	95 µM	–
CCCCCCCCCC/C=C/C=C/c1cc(CCC(=O)OC)no1	–	Not Active

The remaining lines, values ahead:

IC50 [1]	IC50 [2]	Structure (SMILES)
60 µM	–	CCCCC/C=C\C\C=C/C=C/C=C/c1conc1CCC(=O)OC
56 µM	–	CCCCC/C=C\C\C=C/C=C/C=C/c1conc1CCCC(=O)OC
